Patent US4657927A, “Malonato platinum compounds” (Research Corporation, priority 1983, dated 1987)

Assays:
[1] = Hydrolysis by U.V./vis spectral and conductivity studies; assay type: physicochemical; settings: recrystallization from boiling water with malonic acid
Description: *U.V./via spectral and conductivity studies have shown that hydrolysis is negligible.

Sarcoma 180 [2] = test: Antitumor activity, solid sarcoma 180 tumor, T/C of tumor weights at day 10 (Table I); assay type: in vivo, female Swiss white mice; settings: single i.p. injection day 1, slurry in H2O
Method: The compounds of the invention were tested for antitumor activity, i.e., for sensitivity to a planar dsp^2 platinum(II) coordination compound or an octahedral d^2 sp^3 platinum(IV) coordination compound using our standard screening tumor, solid sarcoma 180 tumor in female Swiss white mice, following standard protocols for this testing as set by the National Cancer Institute. (Cancer Chemotherapy Rep., 25 (1962)).
For these tests an S 180 tumor taken from a sacrificed mouse was disected free of superfluous tissue and cut under sterile conditions into approximately 10 milligram size pieces. These tissue pieces were then implanted by trocar in the left axillary region, subcutaneously, in new mice. The mice were, on the average, approximately four weeks old and weighed 18-20 grams. Taking day 0 as the day of implant, the animals were sacrificed on day 10. The tumors were excised and weighed and the ratio of the weights of the tumors in mice in the treated animals to the control set of animals was obtained. This ratio, multiplied by 100, is given as the T/C ratio in Table I.
For the first set of tests the coordination compound was freshly dissolved in sterile distilled water and injected intraperitoneally on day 1 into each of the test mice. The volume of the injection was usually 1/2 ml. In some cases, in order to get an active dose into the animal where the chemical was not soluble in this amount of solvent, a fine dispersion was prepared of the dose needed for the test. Thus, some of our test results were obtained on animals where a slurry of the compound was injected. These are so noted in Table I below. In addition, for some of the compounds, there was injected about 1 ml of solution, either in one single injection, or in 2 injections given a few hours apart of 1/2 ml each. These injections were initially given in 4 different dose levels for each new compound with 6 mice in each dose level. The tests covered a dose range from a low ineffective dose, to an upper dose level which produced some deaths within the time period of the experiment.

Sarcoma 180 [3] = test: Large Sarcoma 180 regressions, injection on day 8 (Table II); assay type: in vivo, female Swiss white mice; settings: single i.p. injection on day 8, H2O solution
Method: In addition to the day 1 injections described above, in a number of case injections were delayed until day 8 of tumor growth. In these cases the tumor was usually at least larger than 1/2 gm, as estimated by palpation. The animals were then injected and observed for a period of approximately 60 days. Activity was measured by the number of animals whose tumors had regressed to the vanishing point, while still allowing the animal to survive for this time period. Such test results are described in TABLE II below.

L1210 = test: Confirmatory antitumor test at the National Cancer Institute, L1210 (Table IV); assay type: in vivo, Mice; settings: daily injections days 1-9, i.p.
Description: Samples of the malonato diammine and malonato ethylene diamine complexes of platinum(II) were submitted to the Drug Research and Development Branch of the National Cancer Institute for screening for antitumor activity against the L1210 tumor in mice. They confirm the activity of the compounds of the invention.

In the case of `O=C(O)CC(=O)O.[NH2-].[NH2-].[Pt+2]` [Malonatodiammineplatinum (II), Malonatodiammineplatinum(II)], the hydrolysis [1] was “negligible”, the “No. of Deaths” value (Sarcoma 180 [2]; 10 mg/kg) was 0 and the T/C (Sarcoma 180 [2]; 10 mg/kg) was 76. For the same molecule, the “No. of Deaths” value (Sarcoma 180 [2]; 15 mg/kg) was 0, the T/C (Sarcoma 180 [2]; 15 mg/kg) was 38 and the “No. of Deaths” value (Sarcoma 180 [2]; 20 mg/kg) was 0. For the same molecule, the T/C (Sarcoma 180 [2]; 20 mg/kg) was 64, the “No. of Deaths” value (Sarcoma 180 [2]; 25 mg/kg) was 0 and the T/C (Sarcoma 180 [2]; 25 mg/kg) was 31. For the same molecule, the “No. of Deaths” value (Sarcoma 180 [2]; 30 mg/kg) was 1/6, the T/C (Sarcoma 180 [2]; 30 mg/kg) was 7 and the “No. of Deaths” value (Sarcoma 180 [2]; 40 mg/kg) was 6/6. The “No. of Deaths” value (Sarcoma 180 [2]; 50 mg/kg) was 5/6, the T/C (Sarcoma 180 [2]; 50 mg/kg) was 1 and the “No. of Deaths” value (Sarcoma 180 [2]; 60 mg/kg) was 6/6. For the same molecule, the Deaths (Sarcoma 180 [3]; 14 mg/kg) was 4, the “Total Number of Regressions” value (Sarcoma 180 [3]; 14 mg/kg) was 2 and the Deaths (Sarcoma 180 [3]; 16 mg/kg) was 3. For the same molecule, the “Total Number of Regressions” value (Sarcoma 180 [3]; 16 mg/kg) was 3, the Deaths (Sarcoma 180 [3]; 18 mg/kg) was 2 and the “Total Number of Regressions” value (Sarcoma 180 [3]; 18 mg/kg) was 4. The Deaths (Sarcoma 180 [3]; 20 mg/kg) was 1, the “Total Number of Regressions” value (Sarcoma 180 [3]; 20 mg/kg) was 5 and the “% Increase in Lifespan” value (L1210; 12.5 mg/kg) was 115%. For the same molecule, the “% Increase in Lifespan” value (L1210; 25 mg/kg) was 133% and the “% Increase in Lifespan” value (L1210; 50 mg/kg) was 163%.
